Results on six compounds are retold here after PubChem BioAssay (NCI).

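Each compound was tested at five concentrations against cells in 96-well plates for 48 hours. The concentration for full growth arrest is given as TGI.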

Test in all cases: NCI tumour cell line growth inhibition, 48 h
Assay [1] deals with M14 melanoma.
Assay [2] relates to MDA-N.
Assay [3] has as its system TK-10 renal.
Assay [4] deals with SR leukemia.
Assay [5] concerns SN12C renal.
The test system of assay [6] is OVCAR-3 ovarian.
The test system of assay [7] is LOX IMVI melanoma.
Assay [8] has as its system SF-268 CNS.
Assay [9] deals with HT29 colon.
Assay [10] concerns T-47D breast.
The test system of assay [11] is SNB-75 CNS.
In assay [12] the test system is OVCAR-5 ovarian.
Assay [13] deals with IGROV1 ovarian.
The test system of assay [14] is ACHN renal.
In assay [15] the test system is A498 renal.
Assay [16] deals with MDA-MB-231 breast.
The test system of assay [17] is RXF 393 renal.
Assay [18] relates to RPMI-8226 leukemia.
In assay [19] the test system is CCRF-CEM leukemia.
In assay [20] the test system is NCI-H23 lung.

Turning to `FC(F)(F)c1ccc2c(c1)nc(Cc1ccc(Cl)cc1)n2CC1CCCN2CCCCC12` (stereo not given), the TGI amounted to 4.91 µM in assay [1]; 13.7 µM in [2]; 24.7 µM in assay [3]; 7.13 µM in assay [4]; 21.4 µM in assay [5]; 15.2 µM in [6]. In addition, the TGI in assay [7] turned out to be 7.85 µM; in assay [8] it was 18 µM; in [9], 11.6 µM; in [10] it was 19.6 µM; in [11], 14 µM; in assay [12], 25 µM. Moreover, the TGI in assay [13] stood at 22 µM; in assay [14], 23.6 µM; in [15] it was 27.1 µM; in [16], 13.1 µM; in [17], 22 µM.

With `N#Cc1nc(CCC(C(=O)O)N2C(=O)c3ccccc3C2=O)oc1N` (stereo not given), the TGI in [1], in assay [18], in assay [2], in [3], in assay [4] and in assay [5] was over 100 µM throughout. For the same compound, the TGI in assay [6], in [19], in assay [20], in assay [8], in [9] and in assay [10] was over 100 µM in each case. Besides, the TGI in assay [11], in assay [12], in assay [13], in assay [14], in assay [15] and in assay [16] was over 100 µM in each case. The compound also gave a TGI in assay [17] of over 100 µM.

With `CC(C)=CCN1c2ccccc2[C@@]2(CC=C(C)C)CCN(C)[C@@H]12`, the TGI in assay [18] is 51 µM; in assay [2], over 100 µM; in [3], over 100 µM; in assay [4] it was over 100 µM; in [5], over 100 µM; in assay [6], 57.3 µM. The TGI is over 100 µM in assay [19]; 34 µM in assay [7]; over 100 µM in [20]; over 100 µM in [8]; 90.4 µM in assay [9]; 50.3 µM in assay [10]. The TGI in assay [11], in assay [12], in assay [13], in [14], in assay [16] and in assay [17] was over 100 µM throughout.

As for `NCCCc1nonc1C(=O)O`, the TGI in [1], in [18], in assay [2], in assay [3], in assay [4] and in [5] was over 100 µM each time. The TGI in assay [6], in assay [19], in assay [7], in assay [20], in assay [8] and in assay [9] was over 100 µM in each case. The TGI in assay [10], in [11], in [12], in assay [13], in [14] and in assay [16] was over 100 µM each time. Further, the TGI in assay [17] is over 100 µM.

For `O=C1C/C(=C\c2ccccc2)C(=O)c2ccccc2N1`, the TGI came to 44.1 µM in [1]; 47.8 µM in [2]; 54.7 µM in assay [3]; 99.5 µM in [4]; 34.8 µM in [5]; 50.5 µM in assay [6]. In addition, the TGI in [19] is 49.8 µM; in [7] it was 40.8 µM; in assay [20], 48.1 µM; in assay [8], 98.4 µM; in [9], 36.5 µM; in assay [10] it was 78.1 µM. The TGI was determined as 40.9 µM in [12]; 38 µM in assay [13]; 58.4 µM in [14]; 35.4 µM in assay [15]; 49.7 µM in [16]; 35.8 µM in [17].

`Cc1ccc(Nc2nc3ccccc3nc2NS(=O)(=O)c2ccc(N)cc2)cc1`: the TGI in assay [1], in [18], in assay [2], in assay [3], in assay [4] and in assay [5] was over 100 µM in each case. The TGI in assay [6] is over 100 µM; in assay [19], 70.7 µM; in assay [7] it was over 100 µM; in assay [20] it was 16.2 µM; in [8], over 100 µM; in assay [9] it was over 100 µM. The TGI in assay [10], in [11], in [12], in [13], in [14] and in assay [16] was over 100 µM each time. The TGI in assay [17] is over 100 µM.
